Reference: ChEMBL document CHEMBL1148640, “Biological evaluation, chelation, and molecular modeling studies of novel metal-chelating inhibitors of NF-kappaB-DNA binding: structure activity relationships” (J Med Chem, 2006)
pIC50: −log10 of the molar value.

Tested on: Radical scavenging activity
Assay: Inhibition of superoxide radical scavenging activity
Assay type: functional

SMILES	pIC50
O=c1c(Br)cc2c(-c3ccccc3S(=O)(=O)O)c3cc(Br)c(O)c(O)c3oc-2c1O [BROMOPYROGALLOL RED]	4.29
CC1=C/C(=C(/c2cc(C)c(O)c(C(=O)O)c2)c2c(Cl)ccc(S(=O)(=O)O)c2Cl)C=C(C(=O)O)C1=O [CHROME AZUROL S]	< 3.60
CC1=C/C(=C(/c2cc(C)c(O)c(C(=O)O)c2)c2ccccc2S(=O)(=O)O)C=C(C(=O)O)C1=O [ERIOCHROME CYANINE R]	< 3.60
O=C1C=C/C(=C(/c2ccc(O)c(O)c2)c2ccccc2S(=O)(=O)O)C=C1O [PYROCATECHOL VIOLET]	3.92
O=c1ccc2c(-c3ccccc3S(=O)(=O)O)c3ccc(O)c(O)c3oc-2c1O [PYROGALLOL RED]	4.06
